Laboratory results: patent US4330557A, “Acyl-carnitine and use thereof in parenteral administration of triglycerides” (priority 1980, dated 1982)

Assay: general statement on activity and toxicity of carnitine stereoisomers and acyl-carnitine

| Structure (SMILES) | activity of carnitine isomer (L-isomer versus other isomer) | toxicity of carnitine isomer (D-isomer versus other isomer) |
| --- | --- | --- |
| C[N+](C)(C)C[C@H](O)CC(=O)[O-] [L-carnitine] | more active | – |
| C[N+](C)(C)C[C@@H](O)CC(=O)[O-] [D-carnitine] | – | slightly more toxic |
